{"source": "patent US6406868B1", "about": "“AMPA-binding human GluR1 receptors” (priority 1992, dated 2002)", "key": {"human GluR1B receptor [1]": {"test_system": "human GluR1B receptor", "test": "NMDA binding to membranes of transfected COS-1 cells", "settings": "membrane preparations from human GluR1B receptor-producing COS cells", "procedure": "(§1) Transfected cells in the frozen state were resuspended in ice-cold distilled water using a hand homogenizer, sonicated for 5 seconds, and then centrifuged for 20 minutes at 50,000 g. The supernatant was discarded and the membrane pellet stored frozen at −70° C.\n(§2) COS cell membrane pellets were suspended in ice cold 5 mM Tris-HCI (pH 7.55, 5C) and centrifuged again at 50,000 g for 10 minutes in order to remove endogenous glutamate that would compete for binding. Pellets were resuspended in ice cold 50 mM Tris-HCl (pH 7.55) buffer and the resultant membrane preparation was used as tissue source for binding experiments described below. Proteins were determined using the Pierce Reagent with BSA as standard."}, "human GluR1B receptor [2]": {"test_system": "human GluR1B receptor", "test": "AMPA-binding assay with membranes of transfected COS-1 cells", "settings": "10 nM [3H]-AMPA; membrane preparations from human GluR1B receptor-producing COS cells; non-specific binding with 1 mM L-glutamate; FIG. 3", "procedure": "as §1, §2\nBinding assays were then performed, using an amount of COS-derived membrane equivalent to from 25-100 ug as judged by protein determination and selected radiolabelled ligand. In particular, for AMPA-binding assays, incubation mixtures consisted of 25-100 ug tissue protein and D,L-alpha-[5-methyl-3H]amino-3-hydroxy-5-methylisoxazole-4-propionic acid (3H-AMPA, 27.6Ci/mmole, 10 nM final) with 0.1 M KSCN and 2.5 mM CaCl2 in the 1 ml final volume. Non-specific binding was determined in the presence of 1 mM L-glutamate. […] Pellets were washed twice in 4 ml of the cold incubation buffer, then 5 ml of Beckman Ready-Protein Plus scintillation cocktail was added, for counting."}, "human GluR1B receptor [3]": {"test_system": "human GluR1B receptor", "test": "kainate-binding assay with membranes of transfected COS-1 cells", "settings": "[vinylidene-3H] kainic acid 5 nM; membrane preparations from human GluR1B receptor-producing COS cells", "procedure": "as §1, §2\nFor kainate-binding assays, incubation mixtures consisted of 25-100 ug tissue protein and [vinylidene-3H] kainic acid (58Ci/mmole, 5 nM final) in the cold incubation buffer, 1 ml final volume. Non-specific binding was determined in the presence of 1 mM L-glutamate. Samples were incubated as for the AMPA-binding assays, and bound and free ligand were separated by rapid filtration using a Brandel cell harvester and GF/B filters pre-soaked in ice-cold 0.3% polyethyleneimine. Filters were washed twice in 6 ml of the cold incubation buffer, then placed in scintillation vials with 5 ml of Beckman Ready-Protein Plus scintillation cocktail for counting."}}, "data": [{"smiles": "CN[C@H](CC(=O)O)C(=O)O", "note": "[NMDA, N-methyl-D-aspartate]", "values": [{"measurement": "binding of NMDA", "setting": "human GluR1B receptor [1]", "value": "little or no demonstrable binding"}]}, {"smiles": "[3H]Cc1onc(O)c1CC(N)C(=O)O", "note": "(racemic) [[3H]-AMPA, D,L-alpha-[5-methyl-3H]amino-3-hydroxy-5-methylisoxazole-4-propionic acid]", "values": [{"measurement": "specific binding", "setting": "human GluR1B receptor [2]", "value": "100-150 fmole/mg protein"}]}, {"smiles": "C=C(C)[C@H]1CN[C@H](C(=O)O)[C@H]1CC(=O)O", "note": "[kainate, [vinylidene-3H] kainic acid]", "values": [{"measurement": "binding of kainate", "setting": "human GluR1B receptor [3]", "value": "little or no demonstrable binding"}]}]}
